Results as given in patent US20050065140A1, “Serotonine reuptake inhibitor” (priority 2001, published 2005).

Target: T1, human 5-HT1A receptor (Homo sapiens, UniProt P08908)
T1 construct: expressed in transfected cells; host or cells: CHO cells (human 5-HT1A/CHO), membrane preparation
T1 sequence (P08908 1-422): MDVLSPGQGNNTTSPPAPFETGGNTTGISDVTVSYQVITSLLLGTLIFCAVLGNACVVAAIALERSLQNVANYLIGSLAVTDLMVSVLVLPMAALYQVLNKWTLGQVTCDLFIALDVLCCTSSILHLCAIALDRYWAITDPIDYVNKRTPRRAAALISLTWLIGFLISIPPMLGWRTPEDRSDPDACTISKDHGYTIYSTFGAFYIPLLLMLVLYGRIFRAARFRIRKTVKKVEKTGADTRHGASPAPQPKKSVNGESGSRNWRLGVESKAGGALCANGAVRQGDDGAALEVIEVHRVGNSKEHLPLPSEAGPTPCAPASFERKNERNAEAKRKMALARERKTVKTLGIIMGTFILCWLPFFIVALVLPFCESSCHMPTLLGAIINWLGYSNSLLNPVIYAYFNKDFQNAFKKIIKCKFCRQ
Assay: 5-HT1A receptor stimulation test, [^35S]GTPγS binding (Test Example 3)
Format: biochemical
Conditions: 10^-5 M test substance; membranes of human 5-HT1A/CHO cells; increase in [^35S]GTPγS binding caused by 10 μM 5-HT taken as 100%
Procedure: 5-HT1A Receptor Stimulation Test
CHO cells expressing human 5-HT1A receptor (human 5-HT1A/CHO) were used in the experiment. The cells were cultured in F12 containing 10% FCS, 500 μg/ml Geneticin and 100 U/ml penicillin-100 μg/ml streptomycin (all available from GIBCO) in a 5% CO2 incubator, and a membrane preparation was prepared according to the method^3)of A. Newman et al. In detail, cells scraped and collected by the use of buffer solution A (20 mM HEPES, 5 mM MgSO4) were homogenized in a Teflon™ homogenizer, followed by centrifugation (50,000×g, 30 min, 4° C.). The precipitate was re-suspended in a suitable volume of buffer solution A and stored at −80° C. until use. The amount of protein in the membrane preparation was determined with Dye Reagent Concentrate (BIO-RAD) by using Albumin Bovine (SIGMA) as a standard substance.
Binding of [^35S]GTPγS to human 5-HT1A receptors was measured by the use of the above-mentioned membrane preparation according to the method^3)of A. Newman et al. In detail, 0.05 nM of [^35S]GTPγS (E.I. du Pont de Nemours & Co. NEN) and a definite amount (about 50 μg/tube) of the membrane preparation were added to buffer solution B (20 mM HEPES, 3 mM MgSO4, 3 μM GDP, 1 mM DTT) containing 10^−5 M of each test substance, and the resulting liquid for reaction having a total volume of 1 ml was incubated at 22° C. for 20 minutes. After completion of the reaction, the reaction mixture was diluted with 5 ml of ice-cooled buffer solution B, and the dilution was immediately filtered by suction through glass fiber filter (Whatman, GF/B) to terminate the reaction. The glass fiber filter was washed twice with the same buffer solution as above and placed in a vial, and 4 ml of ACS-II was added thereto. The radioactivity of [^35S]GTPγS on the filter was measured with a liquid scintillation counter. The amount of [^35S]GTPγS specifically bound was calculated from the amount of [^35S]GTPγS non-specifically bound in the presence of 10 μM of GTPγS (Sigma). The 5-HT1A receptor stimulating activity of each test substance was expressed in terms of the rate of increase in [^35S]GTPγS binding by taking an increase in [^35S]GTPγS binding caused by 10 μM of 5-HT, as 100%.

## COc1ccc(Br)c(CC2CCN(CCC3CCN(CCO)CC3)CC2)c1.Cl.Cl [Example 6, 2-(4-(2-(4-(2-Bromo-5-methoxybenzyl)-1-piperidinyl)ethyl)-1-piperidinyl)ethanol Dihydrochloride]
  5-HT1A receptor stimulating activity (%): 53%

## CCN[C@H]1CC[C@H](CCN2CCC(Cc3cc(OC)ccc3Br)CC2)CC1.Cl.Cl [Example 38, trans-N-(4-(2-(4-(2-bromo-5-methoxybenzyl)-piperidin-1-yl)ethyl)cyclohexyl)-N-ethylamine Dihydrochloride]
  5-HT1A receptor stimulating activity (%): 48%

## CO[C@H]1CC[C@H](CCN2CCC(Cc3cc(OC(C)C)ccc3Br)CC2)CC1.Cl [Example 44, trans-4-(2-Bromo-5-isopropoxybenzyl)-1-(2-(4-methoxycyclohexyl)ethyl)piperidine Hydrochloride]
  5-HT1A receptor stimulating activity (%): 51%

## CCN([C@H]1CC[C@H](CCCN2CCC(Cc3cc(OC(C)C)ccc3Br)CC2)CC1)S(C)(=O)=O.Cl [Example 46, trans-N-(4-(3-(4-(2-bromo-5-isopropoxy-benzyl)piperidin-1-yl)propyl)cyclohexyl)-N-ethylmethanesulfonamide Hydrochloride]
  5-HT1A receptor stimulating activity (%): 62%

## COc1ccc(Br)c(CC2CCN(CC[C@H]3CC[C@H](NS(=O)(=O)N(C)C)CC3)CC2)c1.Cl [Example 47, trans-N′-(4-(2-(4-(2-bromo-5-methoxybenzyl)-piperidin-1-yl)ethyl)cyclohexyl)-N,N-dimethylsulfamide hydrochloride]
  5-HT1A receptor stimulating activity (%): 37%

## COc1ccc(Br)c(CC2CCN(CC[C@H]3CC[C@H](NC(=O)C(F)(F)F)CC3)CC2)c1.Cl [Example 48, trans-N-(4-(2-(4-(2-bromo-5-methoxybenzyl)-piperidin-1-yl)ethyl)cyclohexyl)-2,2,2-trifluoro-acetamide Hydrochloride]
  5-HT1A receptor stimulating activity (%): 33%

## CCN(CC)[C@H]1CC[C@@H](CCCN2CCC(Cc3cc(OC)ccc3Br)CC2)CC1.Cl.Cl [Example 54, cis-N-(4-(3-(4-(2-bromo-5-methoxybenzyl)-piperidin-1-yl)propyl)cyclohexyl)-N,N-diethylamine Dihydrochloride]
  5-HT1A receptor stimulating activity (%): 16%

## CCN(CCOC)[C@H]1CC[C@H](CCN2CCC(Cc3cc(OC)ccc3Br)CC2)CC1.Cl.Cl [Example 58, trans-N-(4-(2-(4-(2-bromo-5-methoxybenzyl)-piperidin-1-yl)ethyl)cyclohexyl)-N-ethyl-N-(2-methoxyethyl)amine Dihydrochloride]
  5-HT1A receptor stimulating activity (%): 30%

## COc1ccc(Br)c(CC2CCN(CC[C@H]3CC[C@@H](CCO)CC3)CC2)c1.Cl [Example 64, cis-2-(4-(2-(4-(2-Bromo-5-methoxybenzyl)-piperidin-1-yl)ethyl)cyclohexyl)ethanol Hydrochloride]
  5-HT1A receptor stimulating activity (%): 19%

## CC(C)Oc1ccc(Br)c(CC2CCN(CC3CCc4ccccc4N3)CC2)c1.Cl.Cl (stereo not shown) [Example 65, 2-((4-(2-Bromo-5-isopropoxybenzyl)piperidin-1-yl)methyl)-1,2,3,4-tetrahydroquinoline Dihydrochloride]
  5-HT1A receptor stimulating activity (%): 64%

## Cl.Cl.Clc1ccc(Br)c(CC2CCN(CC3CCc4ccccc4N3)CC2)c1 (stereo not shown) [Example 67, 2-((4-(2-Bromo-5-chlorobenzyl)piperidin-1-yl)methyl)-1,2,3,4-tetrahydroquinoline Dihydrochloride]
  5-HT1A receptor stimulating activity (%): 74%

## COc1ccc(Br)c(CC2CCN(CC3CCc4ccccc4N3)CC2)c1.Cl.Cl (stereo not shown) [Example 69, 2-((4-(2-Bromo-5-methoxybenzyl)piperidin-1-yl)methyl)-1,2,3,4-tetrahydroquinoline Dihydrochloride]
  5-HT1A receptor stimulating activity (%): 63%

## COc1ccc(Br)c(CC2CCN(CC3CNc4ccccc4C3)CC2)c1.Cl.Cl (stereo not shown) [Example 70, 3-((4-(2-Bromo-5-methoxybenzyl)piperidin-1-yl)methyl)-1,2,3,4-tetrahydroquinoline Dihydrochloride]
  5-HT1A receptor stimulating activity (%): 7%
